Reference: US20230263822A1, “MODULATION OF FACTOR 11 EXPRESSION” (Ionis Pharmaceuticals, Inc., priority 2008, published 2023)
Like-named read-outs stand apart in the source and are kept apart here. e = 2'-O-(2-methoxyethyl) (MOE); d = 2'-deoxy (DNA)

Columns and labels:
[1] = mouse, in vivo, sc, 50 mg/kg
[2] = rat, in vivo, sc, 50 mg/kg
[3] = mouse, in vivo, sc, 50 mg/kg; remark: listed apart in the source
[4] = rat, in vivo, sc, 50 mg/kg; remark: listed apart in the source
[5] = mouse, in vivo, sc, 50 mg/kg; remark: listed apart in the source
[6] = rat, in vivo, sc, 50 mg/kg; remark: listed apart in the source

| Substance | BUN [1] [mg/dL] | ALT [2] [IU/L] | AST [2] [IU/L] | Albumin [2] | Bilirubin [2] [mg/dL] | HCT [3] [%] | Lymphocyte [3] [cells/μL] | Neutrophil [3] [cells/μL] | Platelets [3] | RBC [3] | WBC [3] | hemoglobin [3] [g/dL] | monocytes [3] [cells/μL] | BUN [4] [mg/dL] | Creatinine [4] [mg/dL] | Total urine protein [4] [mg/dL] | Urine protein/creatinine ratio [4] | ALT [5] [IU/L] | AST [5] [IU/L] | Bilirubin [5] [mg/dL] | further results |
| --- | --- | --- | --- | --- | --- | --- | --- | --- | --- | --- | --- | --- | --- | --- | --- | --- | --- | --- | --- | --- | --- |
| ISIS 416859: MOE gapmer, nucleobases 1275 to 1318 of SEQ ID NO: 1 (Table 8) (antisense GACGGCATTGGTGCACAGTT; MOE gapmer, wing and gap sizes not given here) | 18 | 114 | 206 | 5 | 0.21 | 49 | 4363 | 1561 | 826 10^3/μL | 10 10^6/μL | 6 10^3/μL | 15 | 229 | 24 | 44 | 144 | 3.3 | 214 | 293 | 0.20 | Cholesterol [5]: 160 mg/dL; HCT [6]: 45%; Lymphocyte [6]: 14323; Neutrophil [6]: 1414; Platelets [6]: 853; RBC [6]: 7.8 10^6/μL; WBC [6]: 16 10^3/μL; hemoglobin [6]: 14.0 g/dL |
| ISIS 416848: MOE gapmer, nucleobases 1275 to 1318 of SEQ ID NO: 1 (Table 8) (antisense CACAGTTTCTGGCAGGCCTC; MOE gapmer, wing and gap sizes not given here) | 23 | 89 | 236 | 3 | 0.14 | 47 | 5268 | 1264 | 953 10^3/μL | 9 10^6/μL | 7 10^3/μL | 14 | 180 | 26 | 64 | 231 | 3.9 | 153 | 153 | 0.19 | Cholesterol [5]: 151 mg/dL; HCT [6]: 35%; Lymphocyte [6]: 14316; Neutrophil [6]: 1874; Platelets [6]: 384; RBC [6]: 6.0 10^6/μL; WBC [6]: 17 10^3/μL; hemoglobin [6]: 11.1 g/dL |
| ISIS 416866: MOE gapmer, nucleobases 1275 to 1318 of SEQ ID NO: 1 (Table 8) (antisense CTGGCAGCGGACGGCATTGG; MOE gapmer, wing and gap sizes not given here) | 22 | 41 | 78 | 4 | 0.16 | 51 | 4621 | 1201 | 1045 10^3/μL | 9 10^6/μL | 6 10^3/μL | 15 | 211 | 22 | 85 | 486 | 6.2 | 36 | 120 | 0.29 | Cholesterol [5]: 113 mg/dL; HCT [6]: 44%; Lymphocyte [6]: 16834; Neutrophil [6]: 1916; Platelets [6]: 900; RBC [6]: 7.8 10^6/μL; WBC [6]: 20 10^3/μL; hemoglobin [6]: 14.0 g/dL |
| ISIS 413481: 5-10-5 MOE gapmer GGTGCACAGTTTCTGGCAGG (sugars from the 5' end e5 d10 e5, backbone and methylation of C not given here) | 23 | 54 | 80 | 4 | 0.22 | 45 | 4329 | 1904 | 841 10^3/μL | 9 10^6/μL | 7 10^3/μL | 13 | 204 | 26 | 45 | 148 | 3.6 | 85 | 143 | 0.18 | Cholesterol [5]: 153 mg/dL; HCT [6]: 43%; Lymphocyte [6]: 12707; Neutrophil [6]: 1046; Platelets [6]: 552; RBC [6]: 7.5 10^6/μL; WBC [6]: 14 10^3/μL; hemoglobin [6]: 14.2 g/dL |
| ISIS 412224: 5-10-5 MOE gapmer GCATTGGTGCACAGTTTCTG (sugars from the 5' end e5 d10 e5, backbone and methylation of C not given here) | 29 | 84 | 132 | 4 | 0.12 | 50 | 6284 | 2107 | 647 10^3/μL | 10 10^6/μL | 9 10^3/μL | 15 | 195 | 24 | 44 | 171 | 3.8 | 214 | 183 | 0.19 | Cholesterol [5]: 114 mg/dL; HCT [6]: 42%; Lymphocyte [6]: 16807; Neutrophil [6]: 1865; Platelets [6]: 685; RBC [6]: 7.4 10^6/μL; WBC [6]: 20 10^3/μL; hemoglobin [6]: 13.4 g/dL |
| ISIS 416851: MOE gapmer, nucleobases 1275 to 1318 of SEQ ID NO: 1 (Table 8) (antisense GTGCACAGTTTCTGGCAGGC; MOE gapmer, wing and gap sizes not given here) | 21 | 64 | 91 | 4 | 0.14 | 47 | 4162 | 1619 | 984 10^3/μL | 9 10^6/μL | 6 10^3/μL | 14 | 194 | 24 | 70 | 286 | 4.0 | 47 | 76 | 0.19 | Cholesterol [5]: 106 mg/dL; HCT [6]: 42%; Lymphocyte [6]: 9911; Neutrophil [6]: 1001; Platelets [6]: 734; RBC [6]: 7.4 10^6/μL; WBC [6]: 11 10^3/μL; hemoglobin [6]: 13.7 g/dL |
